Experiment [1] has as its target T1, H. sapiens mitochondrial 2-enoyl thioester reductase (HsETR1) (Homo sapiens, UniProt Q9BV79).
T1 construct: gene MECR; isolated protein; construct and host not described in main text (assay details in Text S1); 1ZSY is the docked crystal structure
T1 sequence (Q9BV79 54-373): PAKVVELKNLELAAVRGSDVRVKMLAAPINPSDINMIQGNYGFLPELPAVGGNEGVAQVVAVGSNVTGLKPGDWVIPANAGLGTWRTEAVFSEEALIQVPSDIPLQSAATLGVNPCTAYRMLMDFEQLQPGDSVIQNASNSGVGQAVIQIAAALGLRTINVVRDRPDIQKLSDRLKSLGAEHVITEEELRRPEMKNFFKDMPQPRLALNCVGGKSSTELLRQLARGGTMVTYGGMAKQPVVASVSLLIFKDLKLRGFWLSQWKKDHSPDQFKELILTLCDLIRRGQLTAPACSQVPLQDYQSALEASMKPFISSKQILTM
Put plainly: enzyme inhibition assay (details in Text S1). The class given is biochemical.

In experiment [2] the target is T2, T. brucei UDP-galactose 4′ epimerase (TbGalE) (Trypanosoma brucei, UniProt Q8T8E9).
T2 construct: gene galE; isolated protein; construct and host not described in main text (assay details in Text S1); 1GY8 is the docked crystal structure
T2 sequence (Q8T8E9 1-395): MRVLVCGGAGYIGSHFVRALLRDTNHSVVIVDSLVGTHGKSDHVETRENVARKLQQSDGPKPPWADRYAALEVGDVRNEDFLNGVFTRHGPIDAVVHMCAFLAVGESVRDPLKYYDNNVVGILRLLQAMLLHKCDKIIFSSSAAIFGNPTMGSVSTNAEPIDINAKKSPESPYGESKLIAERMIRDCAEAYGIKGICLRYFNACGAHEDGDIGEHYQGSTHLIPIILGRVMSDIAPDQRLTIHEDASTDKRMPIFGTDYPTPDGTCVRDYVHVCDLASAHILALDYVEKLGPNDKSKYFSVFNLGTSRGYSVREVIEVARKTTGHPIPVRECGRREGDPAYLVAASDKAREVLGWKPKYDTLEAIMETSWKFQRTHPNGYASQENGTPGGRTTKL
Put plainly: enzyme inhibition assay (details in Text S1). It counts as biochemical.

Turning to `O=S(=O)(O)c1cc(O)c2c(O)c(N=Nc3cccc4ccccc34)c(S(=O)(=O)O)cc2c1` [compound 1, 4,5-dihydroxy-3-(1-naphthyldiazenyl)-2,7-naphthalenedisulfonic acid], the IC50 (as a rule, the concentration that gives 50% inhibition) in experiment [1] is ~33.5 µM; in experiment [2], 0.7 ± 0.2 µM.

The record behind these values is PMC2799658, “A Multidimensional Strategy to Detect Polypharmacological Targets in the Absence of Structural and Sequence Homology” (PLoS Computational Biology, 2010).
